Assay results published in ChEMBL document CHEMBL6177915, “Design, synthesis and mechanistic insights into triclosan derived dimers as potential anti-plasmodials” (RSC Med Chem, 2025).

Columns and labels:
[1] = test system: Plasmodium falciparum; test: Resistance index, ratio of IC50 for antiplasmodial activity against CQ-resistant Plasmodium falciparum W2 to IC50 for antiplasmodial activity against CQ-susceptible Plasmodium falciparum 3D7; type: functional
[2] = test system: Plasmodium falciparum; test: Antiplasmodial activity against CQ-susceptible Plasmodium falciparum 3D7 assessed as inhibition of parasite growth incubated for 72 hrs by HRP2 based ELISA; type: functional, organism-based; conditions: 3D7, 72 h
[3] = Cytotoxicity against African green monkey Vero E6 cells assessed as cell viability measured after 48 hrs incubation by MTT assay; type: toxicity, cell-based, Vero C1008; conditions: chlorocebus sabaeus
[4] = Selectivity index, ratio of CC50 for Cytotoxicity against African green monkey Vero E6 cells to IC50 for Antiplasmodial activity against CQ-resistant Plasmodium falciparum W2; type: toxicity, cell-based; conditions: read-out: Ratio CC50/IC50
[5] = test system: Plasmodium falciparum; test: Antiplasmodial activity against CQ-resistant Plasmodium falciparum W2 assessed as inhibition of parasite growth incubated for 72 hrs by HRP2 based ELISA; type: functional, organism-based; conditions: W2, 72 h
[6] = test system: Heme; test: Binding affinity to heme assessed as binding constant logK of the compound in HEPES buffer at pH 7.4
[7] = test system: Heme; test: Binding affinity to heme assessed as binding constant logK of the compound in MES buffer at pH 5.6
[8] = Inhibition of Plasmodium falciparum enoyl ACP reductase
[9] = test system: Plasmodium falciparum; test: Antiplasmodial activity against Plasmodium falciparum W2; type: functional, organism-based

Row | SMILES | Ratio IC50 [1] | IC50 [2] | CC50 at 48 h [3] | selectivity ratio [4] | IC50 [5] | log K [6] | log K [7] | IC50 [8] | IC50 [9]
1 | Clc1ccc(Oc2ccc(Cl)cc2OCCCn2cc(COc3cc(Cl)ccc3Oc3ccc(Cl)cc3Cl)nn2)c(Cl)c1 | 1.17 | 21 µM | 103 µM | 4.2 | 24.7 µM |  |  |  | 
2 | Clc1ccc(Oc2ccc(Cl)cc2OCCCCCCOc2cc(Cl)ccc2Oc2ccc(Cl)cc2Cl)c(Cl)c1 | 0.95 | 21.2 µM | 63.3 µM | 3.1 | 20.3 µM |  |  |  | 
3 | Clc1ccc(Oc2ccc(Cl)cc2OCCCCn2cc(COc3cc(Cl)ccc3Oc3ccc(Cl)cc3Cl)nn2)c(Cl)c1 | 1.06 | 20.7 µM | 76.5 µM | 3.5 | 22.2 µM |  |  |  | 
4 | O=[N+]([O-])c1cc(Oc2ccc(Cl)cc2Cl)c(OCc2cn(CCOc3cc(Cl)ccc3Oc3ccc(Cl)cc3Cl)nn2)cc1Cl | 0.95 | 29.8 µM | 91.8 µM | 3.6 | 28.6 µM |  |  |  | 
5 | Clc1ccc(Oc2ccc(Cl)cc2OCCCCOc2cc(Cl)ccc2Oc2ccc(Cl)cc2Cl)c(Cl)c1 | 0.93 | 23.9 µM | 99.7 µM | 4.5 | 22.3 µM |  |  |  | 
6 | Clc1ccc(Oc2ccc(Cl)cc2OCCCCCn2cc(COc3cc(Cl)ccc3Oc3ccc(Cl)cc3Cl)nn2)c(Cl)c1 | 1.3 | 19.3 µM | 64.6 µM | 2.6 | 25.3 µM |  |  |  | 
7 | O=[N+]([O-])c1cc(Oc2ccc(Cl)cc2Cl)c(OCc2cn(CCCCCCOc3cc(Cl)ccc3Oc3ccc(Cl)cc3Cl)nn2)cc1Cl | 0.96 | 26.3 µM | 54.9 µM | 2.2 | 25.4 µM |  |  |  | 
8 | CCNCc1cc(Nc2ccnc3cc(Cl)ccc23)ccc1O [DESETHYL AMODIAQUINE] | 6 |  | 87 µM | 725 |  |  |  |  | 
9 | O=[N+]([O-])c1cc(Oc2ccc(Cl)cc2Cl)c(OCc2cn(CCCOc3cc(Cl)ccc3Oc3ccc(Cl)cc3Cl)nn2)cc1Cl | 1.14 | 22.5 µM | 81.9 µM | 3.2 | 25.8 µM |  |  |  | 
10 | Clc1ccc(Oc2ccc(Cl)cc2OCCCOc2cc(Cl)ccc2Oc2ccc(Cl)cc2Cl)c(Cl)c1 | 1.11 | 27.7 µM | 81.5 µM | 2.6 | 30.9 µM |  |  |  | 
11 | Oc1cc(Cl)c(NCc2cn(CCCCCCOc3cc(Cl)ccc3Oc3ccc(Cl)cc3Cl)nn2)cc1Oc1ccc(Cl)cc1Cl | 1.05 | 24.3 µM | 66.3 µM | 2.6 | 25.7 µM |  |  |  | 
12 | CCN(CC)CCCC(C)Nc1ccnc2cc(Cl)ccc12 (configuration not stated) [CHLOROQUINE] |  |  | > 100 µM |  |  |  |  |  | 
13 | Clc1ccc(Oc2ccc(Cl)cc2OCCn2cc(COc3cc(Cl)ccc3Oc3ccc(Cl)cc3Cl)nn2)c(Cl)c1 | 0.97 | 21.9 µM | 105 µM | 4.9 | 21.3 µM |  |  |  | 
14 | Oc1cc(Cl)ccc1Oc1ccc(Cl)cc1Cl |  |  |  |  |  | 5.8 | 6.16 |  | 
15 | Oc1cc(Cl)c(NCc2cn(CCCCCOc3cc(Cl)ccc3Oc3ccc(Cl)cc3Cl)nn2)cc1Oc1ccc(Cl)cc1Cl | 0.72 | 27.5 µM | 75 µM | 3.8 | 20 µM |  |  |  | 
16 | C=C[C@H]1C[N@@]2CC[C@H]1C[C@H]2[C@H](O)c1ccnc2ccc(OC)cc12 [QUININE] |  |  | > 100 µM | > 222 |  |  |  |  | 
17 | Oc1cc(Cl)c(NCc2cn(CCCCOc3cc(Cl)ccc3Oc3ccc(Cl)cc3Cl)nn2)cc1Oc1ccc(Cl)cc1Cl | 0.9 | 24.2 µM | 72.1 µM | 3.3 | 21.8 µM |  |  |  | 
18 | N#Cc1ccc(Oc2ccc(Cl)cc2Cl)c(O)c1 |  |  |  |  |  |  |  | 0.049 µM | 
19 | Oc1cc(Cl)c(NCc2cn(CCOc3cc(Cl)ccc3Oc3ccc(Cl)cc3Cl)nn2)cc1Oc1ccc(Cl)cc1Cl | 1.29 | 17.2 µM | 99.3 µM | 4.5 | 22.3 µM |  |  |  | 
20 | Clc1ccc(Oc2ccc(Cl)cc2OCCOc2cc(Cl)ccc2Oc2ccc(Cl)cc2Cl)c(Cl)c1 | 0.77 | 12.1 µM | 90.9 µM | 9.8 | 9.27 µM | 6.4 | 6.58 |  | 
21 | C=C[C@H]1CN2CC[C@H]1C[C@H]2[C@H](O)c1ccnc2ccc(OC)cc12 [QUININE] | 3.75 | 0.12 µM |  |  | 0.45 µM |  |  |  | 
22 | O=C(N/N=C/c1ccc(OCc2cn(CCNc3ccnc4cc(Cl)ccc34)nn2)cc1)c1cnncn1 |  |  |  |  |  |  |  |  | 0.26 µM
23 | O=[N+]([O-])c1cc(Oc2ccc(Cl)cc2Cl)c(OCc2cn(CCCCCOc3cc(Cl)ccc3Oc3ccc(Cl)cc3Cl)nn2)cc1Cl | 1.08 | 28.2 µM | 116 µM | 3.8 | 30.7 µM |  |  |  | 
24 | Oc1cc(Cl)c(NCc2cn(CCCOc3cc(Cl)ccc3Oc3ccc(Cl)cc3Cl)nn2)cc1Oc1ccc(Cl)cc1Cl | 0.52 | 20.8 µM | 76.8 µM | 7 | 10.9 µM | 5.17 | 6.3 |  | 
25 | Clc1ccc(Oc2ccc(Cl)cc2OCCCCCCn2cc(COc3cc(Cl)ccc3Oc3ccc(Cl)cc3Cl)nn2)c(Cl)c1 | 1.04 | 31.2 µM | 104 µM | 3.2 | 32.6 µM |  |  |  | 
26 | Clc1ccc(Oc2ccc(Cl)cc2OCCCCCOc2cc(Cl)ccc2Oc2ccc(Cl)cc2Cl)c(Cl)c1 | 1.31 | 26.1 µM | 70.2 µM | 2 | 34.4 µM |  |  |  | 
27 | O=[N+]([O-])c1cc(Oc2ccc(Cl)cc2Cl)c(OCc2cn(CCCCOc3cc(Cl)ccc3Oc3ccc(Cl)cc3Cl)nn2)cc1Cl | 0.77 | 32.9 µM | 83.9 µM | 3.3 | 25.4 µM |  |  |  | 
